In US20170202939A1, “PERSONALIZED CANCER VACCINES AND METHODS THEREFOR” (Washington University, priority 2014, published 2017):
Read-outs that look alike come from different tables or passages of the source. No end group written: not given here.

Columns and labels:
HLA-A*02:01 = biological target: T1, HLA-A*02:01 (Homo sapiens, UniProt P04439, D140Y/D185E/D98H/E176V/E277Q/G131W/G231S/I119V/I121R/I166T/I218V/L300P/L318F/N151K/N90K/P208A/P217A/Q86G/Q94H/R138H/R169H/T345S); experiment: fluorescence polarization-based competitive peptide binding assay
T1 construct: purchased Pure Protein, L.L.C

[1] = tested on: neoantigen-specific CD8+ T cells; experiment: immune monitoring of vaccinated patients, HLA/peptide dextramer (tetramer) assay on cultured PBMC; type: in vivo, human; details: for Immunogenicity: AAS-directed CD8+ T cell response in vaccinated patient; for frequency of neoantigen-specific CD8+ T cells / T cell response upon vaccination: post-vaccine PBMC, dextramer assay; for frequency of neoantigen-specific CD8+ T cells: upon culture, at the peak of response; for Spontaneous Immunity: pre-vaccine (naturally-occurring) CD8+ T cell response, immune monitoring assay; for pre-existing (naturally occurring) T cell immunity: pre-vaccine PBMC samples after in vitro stimulation
Experimental: Immunologic monitoring (Examples 1-10). Immunologic analysis to evaluate the kinetics and magnitude of T cell response to gp100 peptides was performed using PBMCs collected weekly (prior to vaccination and until week 21. Fresh PBMCs obtained by Ficoll-Hypaque gradient centrifugation were adjusted to 2×10^6 cells/ml in Stemline media (Sigma-Aldrich) containing 5% human AB-serum, and dispersed at 1 ml/well in 24-well plates. Cultures were set up for the gp100 peptides and the CMV pp65 peptide (positive peptide control). Cultures were pulsed with 40 μg/ml peptide and 50 U/ml IL-2 fed starting at 48 hours and every other day thereafter. On day 12 (peak of response; the inventors' unpublished observation), cultures were harvested, counted, and stained for flow cytometry analysis. To assess the antigen-specific T cell frequency, cells were stained with HLAA*0201/peptide tetramers (Beckman Coulter) for 30 minutes at room temperature, followed by addition of FITC-conjugated CD4, CD14, CD19, and CD56 and allophycocyanin-conjugated CD8 (Invitrogen) for 15 minutes at 4° C. Cells were washed and resuspended in FACS buffer, and 7AAD was added 5 minutes before analysis. Control CMV pp65-specific CD8+ T cells were detected in all CMV-seropositive patients before and after immunization. A negative HLA-A*0201/HIV gag peptide tetramer control was included. 25,000 events in the CD8+ gate were collected using a hierarchical gating strategy that included FSC/SSC and excluded 7AAD+ (dead) cells and CD4+CD14+CD19+CD56+ cells. Data were acquired and analyzed using Flow-Jo software.
To examine the kinetics and magnitude of T cell immunity to AAS peptides upon vaccination, peripheral blood mononuclear cells (PBMC) were collected prior to vaccination and weekly thereafter. The CD8+ T cell response to each peptide was analyzed using a HLA-A*02:01/AAS-peptide dextramer assay after a single round of in vitro stimulation. FIG. 30A illustrates kinetics of immune responses to neoantigens. Time is recorded in weeks (0 indicates pre-vaccination). Culture conditions and staining details are described infra. Antigen-specific numbers were calculated based on dextramer percentage and total live cell yields. Immunologic analysis to evaluate the kinetic and magnitude of T cell response to AAS-encoding and gp100-derived peptides was performed using PBMC collected weekly, starting before DC vaccination (Pre-vaccine in the figures) as described (Carreno, B. M., et al., J. Clin. Invest., 123, 3383-3394, 2013). Briefly, fresh PBMC obtained by Ficoll-Paque PLUS gradient centrifugation were cultured with 40 ug/mL peptide and IL-2 (50 U/mL). On day 10 (peak of response, unpublished data, labeled “Post-Vaccine” in the figures), neoantigen specific T cell frequencies were determined by staining with HLA-A*02:01/peptide dextramers (Immudex), followed by addition of FITC-CD4, -CD14, -CD19 (Invitrogen) and ALEXA® 488-CD56 (BD Pharmigen), APC-CD8 (Invitrogen). Cells were washed, resuspended in FACS buffer containing 7AAD. Twenty five thousand events in the CD8+ gate were collected using a hierarchical gating strategy that included FSC/SSC and excluded 7AAD-positive (dead cells) and CD4/14/19/56-positive cells. PBMC/CD8+ T cells derived from an unrelated HLA-A*02:01 patient were used as negative controls for assessing specificity of HLA-A*02:01/AAS-peptide dextramers (data not shown). Data were acquired and analyzed using Flow-Jo software. […] FIG. 30B illustrates the frequency of neoantigen specific T cells in CD8+ populations isolated directly from PBMC samples and after ex-vivo expansion using autologous DC and artificial antigen presenting cells. For dominant neoantigens TMEM48 F169L, SEC24A P469L and EXOC8 Q656, results are shown for samples obtained before vaccination (Pre-vaccine) and after 3 vaccine doses (Post-vaccine). For remaining neoantigens, results obtained with post-vaccine PBMC samples are shown. […]

[2] = fluorescence polarization-based competitive peptide-binding assay, high affinity log(IC50; nM) <3.7, read-out: Experimental Affinity log(IC50) (converted)

Question: For CLNEYHLFL, which IC50 (HLA-A*02:01; [2]) is on record?
Answer: Its IC50 is 1230 nM.

Question: What about the Immunogenicity [1] of the same sequence?
Answer: Its Immunogenicity is “Yes”.

Question: And the “frequency of neoantigen-specific CD8+ T cells” value [1]?
Answer: The value was 23%.

Question: What about the “Spontaneous Immunity” value [1] of the same sequence?
Answer: The value was “Yes”.

Question: And the “pre-existing (naturally occurring) T cell immunity” value [1]?
Answer: The value was “could be detected in pre-vaccine PBMC samples”.

Question: Which results are given for IILVAVPHV?
Answer: frequency of neoantigen-specific CD8+ T cells [1]: 89%; pre-existing (naturally occurring) T cell immunity [1]: could be detected in pre-vaccine PBMC samples

Question: Which results are given for QLSCISTYV?
Answer: IC50 (HLA-A*02:01; [2]): 1260 nM; Immunogenicity [1]: Yes; frequency of neoantigen-specific CD8+ T cells [1]: 42%; T cell response upon vaccination [1]: reveal two additional ones; Spontaneous Immunity [1]: No

Question: How did the IC50 (HLA-A*02:01; [2]) turn out when MLGEQLFPL was run?
Answer: Its IC50 is 224 nM.

Question: And the Immunogenicity [1]?
Answer: Its Immunogenicity is “Yes”.

Question: What about the “frequency of neoantigen-specific CD8+ T cells” value [1] of the same sequence?
Answer: The value was 84%.

Question: And the “Spontaneous Immunity” value [1]?
Answer: Its value is “No”.

Question: Which results are given for KLMNIQQKL?
Answer: IC50 (HLA-A*02:01): 1170 nM; Immunogenicity [1]: Yes; frequency of neoantigen-specific CD8+ T cells [1]: 47%; T cell response upon vaccination [1]: reveal two additional ones; Spontaneous Immunity [1]: No
